Measurements published in patent US20170349533A1 (F.I.S.- FABBRICA ITALIANA SINTETICI S.P.A, priority 2014, published 2017).
Values joined by “and” are separate entries in the source; they are usually repeats but may differ in a detail not shown here. Equal entries are not always repeated. “Also recorded” adds a separate entry of the source.

Assays:
[1] = Kinetic solubility study at pH 4.5 (acetic acid/sodium acetate buffer, HPLC area); conditions: for Encl. Citr. average / solubility at pH 4.5 compared with Enclomiphene citrate having non-needle crystals: pH 4.5
Experimental: (§1) Solubility was determined by HPLC analysis, by comparison of the area corresponding to Enclomiphene HPLC peak.
(§2) To carry out the solubility studies, 400 mg of each product (not grinded) was stirred in water (24 ml, 60v) under the same conditions of stirring speed (magnetic stirring at 1000 rpm with a 2 cm “rugby shape” stir bar), flask used (round bottom flask of 50 ml of capacity with a 29/32 neck), etc. Alliquotes of ca 6 ml of suspension were filtered at different times: 15, 45, 90 and 180 min. After filtration, mother liquors were directly analyzed by HPLC (doing 2 replicates for each analysis) and its pH was determined. The filtered solid was analyzed by XRPD. The solubility analysis was repeated for each product and comparison of solubility was determined by the differences of HPLC area.
Solubility at a slightly acid medium was determined at pH 4.5 buffer used was a mixture acetic acid/sodium acetate prepared according to USP specifications.

[2] = Flowability through a glass funnel (in-house method); type: physicochemical
Experimental: Flowability was determined by an in-house method using a glass funnel (diameter 80 mm-stem diameter 10 mm-stem length 75 mm) with approximately 5 g of product repeating the process three times (in the cases in which flowability was observed). Different parameters were observed: • Flow or not • Need of percussion • Time to pass through the funnel

[3] = Particle size distribution by laser diffraction, wet dispersion; type: physicochemical
Description: Different techniques can be used in order to determine the population size distribution (Microscopy image analysis, sieving, sedimentation . . . ). However laser diffraction particle size analyzer using light scattering is one of the most widely used. It is worth noting that each technique is liable to generate a different mean diameter as well as measuring different properties of the particle. Therefore it is very important to indicate the used technique when a result of mean size is given.
Particle size analysis by laser diffraction analyzer can be performed in wet or dry dispersion. However wet dispersion was selected because: • it allows to use only a small amount of sample, • it is recommended for fragile particles such as organic crystals.
Particle size distribution was analyzed in a Beckman Coulter LS13320 apparatus equipped with an Universal Liquid Module.
The particles have to be insoluble in the liquid used for the wet dispersion to avoid dissolution during the measurement.
40 mg of the sample were stirred in 25 ml of water and 3 drops of Triton X100 (to improve the wettability of the crystals and to avoid agglomeration during the analysis). If necessary, ultrasonic irradiation (bath 30 kHz and 200 W) was used for short time in order to break up any agglomerates or aggregates.

[4] = Bulk and tapped density (in-house method, filled space of 500 mg in a test tube); type: physicochemical
Experimental: Density was determined by an in-house method measuring the filled space by a sample of 500 mg in a test tube before and after hitting the tube (bulk and tapped density, respectively):
The compressibility index calculated from bulk and tapped densities can be used to estimate the flow characteristics of the powder. Following the rule described in the article Chem Eng 1965; 72:163-168, it can be considered that the flow character should be: • Excellent for Enclomiphene base having prismatic shaped crystal habit, • Passable for Enclomiphene base having non-prismatic shaped crystal habit (of example 19).

[5] = Hygroscopicity by DVS (Dynamic Vapour Sorption); type: physicochemical; conditions: 25° C.; for water uptake at 95% RH: 0-95% RH
Experimental: This is a gravimetric technique that measures how much water is absorbed or desorbed by a sample at different relative humidity (RH). At each RH, the sample mass must be allowed to reach gravimetric equilibrium (or surpassed time limit) before progressing to the next humidity level. Sorption and desorption isotherms will be performed at 25° C. over a range of 0-95% RH. The type of sorption isotherm is determined by the pore size and surface character of the material.

[6] = Stability study of crystal habit by microscopy, three stability conditions for 30 days; type: physicochemical; conditions: 30 days at 60% RH, 75% RH-40° C., 95% RH
Description: (B), and 95% RH (C), with reflected light (left) and transmitted light (right) (scale 500 μm).
Microscopy analysis of Enclomiphene base having prismatic shaped crystal habit exposed to three stability conditions for 30 days indicated the same colorless transparent prism as the starting product.

[7] = Filterability of suspension in ethanol; type: physicochemical; conditions: 40 mL of suspension in ethanol, on paper over a Buckner
Experimental: Enclomiphene having prismatic shaped crystal habit is indeed very well filterable, since, for example, the filtration (on paper over a Buckner) of 40 mL of suspensions containing of said solid in ethanol takes only 10 seconds.

[8] = Kinetic solubility study in water (HPLC area of Enclomiphene peak)
Experimental: as §1
For each solubility study, the following parameters were monitored: • intensity of Enclomiphene peak for each replicate of the assay • average value • standard deviation.
as §2
Below an HPLC method that allow to have a fast determination of Enclomiphene solubility:
These HPLC conditions were used to perform solubility analysis.

[9] = first run (example 19: with constant percussion)
[10] = first run, approx. 5 g, glass funnel
[11] = water + Triton X100, without sonication, listed as Enclomiphene having prismatic shaped crystal habit
[12] = water + Triton X100, without sonication, listed as Sample 724
[13] = water + Triton X100, without sonication, listed as batch 724
[14] = water + Triton X100, without sonication, listed as Sample 725
[15] = water + Triton X100, without sonication, listed as batch 725

Question: What does the source list for `CCN(CC)CCOc1ccc(/C(=C(/Cl)c2ccccc2)c2ccccc2)cc1` [Enclomiphene acetate]?
Answer: Encl. Citr. average ([1]; 0 min): 0 HPLC area; Encl. Citr. average ([1]; 15 min): 14069 HPLC area; Encl. Citr. average ([1]; 45 min): 13771 HPLC area; Encl. Citr. average ([1]; 90 min): 13708 HPLC area; Encl. Citr. average ([1]; 180 min): 13196 HPLC area

Question: For `CCN(CC)CCOc1ccc(/C(=C(/Cl)c2ccccc2)c2ccccc2)cc1` [Enclomiphene base (example 18), Enclomiphene], which “Percussion needed?” value ([2]; first run) is on record?
Answer: Yes

Question: And the “time to pass through the funnel” value [2, 9]?
Answer: 15 s

Question: What about the “Flow?” value [2, 10] of the same molecule?
Answer: Yes

Question: What about the “flow through the funnel” value ([2]; listed as Enclomiphene having prismatic shaped crystal habit) of the same molecule?
Answer: flowed through the funnel

Question: What about the “Flow?” value ([2]; second run) of the same molecule?
Answer: Yes

Question: What about the “Percussion needed?” value ([2]; second run) of the same molecule?
Answer: Yes

Question: What about the “time to pass through the funnel” value ([2]; second run) of the same molecule?
Answer: 12 s

Question: And the “Flow?” value ([2]; third run)?
Answer: Yes

Question: What about the “Percussion needed?” value ([2]; third run) of the same molecule?
Answer: yes

Question: What about the “time to pass through the funnel” value ([2]; third run) of the same molecule?
Answer: 14 s

Question: And the “time to pass through the funnel” value ([2]; with percussion, listed as Enclomiphene having prismatic shaped crystal habit)?
Answer: 10 s

Question: And the “PSD D10” value [3, 11]?
Answer: 80 μm

Question: What about the “PSD D90” value [3, 11] of the same molecule?
Answer: 770 μm

Question: And the “PSD D10” value [3, 12]?
Answer: 81.89 μm

Question: And the “PSD D90” value [3, 12]?
Answer: 770 μm

Question: What about the “PSD Mean” value [3, 12] of the same molecule?
Answer: 374.3 μm

Question: And the “PSD Median (D50)” value [3, 12]?
Answer: 306.4 μm

Question: What about the “PSD Mode” value [3, 12] of the same molecule?
Answer: 356.1 μm

Question: What about the “PSD Mean” value [3, 13] of the same molecule?
Answer: 374.3 μm

Question: And the “PSD Median (D50)” value [3, 13]?
Answer: 306.54 μm

Question: And the “filled space of 500 mg in test tube” value ([4]; filled space of 500 mg in a test tube after hitting the tube, listed as Enclomiphene (example 18))?
Answer: 8 mm

Question: What about the “filled space of 500 mg in test tube” value ([4]; filled space of 500 mg in a test tube after hitting the tube, listed as Enclomiphene base having prismatic crystal habit) of the same molecule?
Answer: 8 mm

Question: What about the “filled space of 500 mg in test tube” value ([4]; filled space of 500 mg in a test tube before hitting the tube, listed as Enclomiphene (example 18)) of the same molecule?
Answer: 8 mm

Question: And the “filled space of 500 mg in test tube” value ([4]; filled space of 500 mg in a test tube before hitting the tube, listed as Enclomiphene base having prismatic crystal habit)?
Answer: 8 mm

Question: What about the “Reduced space (bulk vs tapped)” value ([4]; listed as Enclomiphene (example 18)) of the same molecule?
Answer: 0%

Question: What about the “hygroscopicity (in words)” value ([5]; whole range 0-95% RH) of the same molecule?
Answer: not hygroscopic

Question: What about the “stability of crystal habit” value [6] of the same molecule?
Answer: remains stable at least one month

Question: What about the filtration time [7] of the same molecule?
Answer: 10 s

Question: With `CCN(CC)CCOc1ccc(/C(=C(/Cl)c2ccccc2)c2ccccc2)cc1` [Enclomiphene base (example 19), Enclomiphene] as the molecule, how does the “Percussion needed?” value ([2]; first run) read?
Answer: Yes (if constant)

Question: What about the “time to pass through the funnel” value [2, 9] of the same molecule?
Answer: 130 s

Question: And the “Flow?” value [2, 10]?
Answer: No (static

Question: And the “flow through the funnel” value ([2]; listed as Enclomiphene having non-prismatic shaped crystal habit)?
Answer: did not flow

Question: And the “time to pass through the funnel” value ([2]; with percussion, listed as Enclomiphene having non-prismatic shaped crystal habit)?
Answer: 130 s

Question: And the “PSD D10” value ([3]; 10 sec sonication)?
Answer: 0.100 μm

Question: What about the “PSD D90” value ([3]; 10 sec sonication) of the same molecule?
Answer: 1.942 μm

Question: What about the “PSD Mean” value ([3]; 10 sec sonication) of the same molecule?
Answer: 0.715 μm

Question: And the “PSD Median (D50)” value ([3]; 10 sec sonication)?
Answer: 0.284 μm

Question: What about the “PSD Mode” value ([3]; 10 sec sonication) of the same molecule?
Answer: 1.748 μm

Question: And the “PSD D10” value [3, 14]?
Answer: 5.819 μm

Question: And the “PSD D90” value [3, 14]?
Answer: 90.47 μm

Question: What about the “PSD Mean” value [3, 14] of the same molecule?
Answer: 36.79 μm

Question: And the “PSD Median (D50)” value [3, 14]?
Answer: 24.96 μm

Question: And the “PSD Mode” value [3, 14]?
Answer: 26.14 μm

Question: And the “PSD Mean” value [3, 15]?
Answer: 36.79 μm

Question: And the “PSD Median (D50)” value [3, 15]?
Answer: 24.96 μm

Question: What about the “filled space of 500 mg in test tube” value ([4]; filled space of 500 mg in a test tube after hitting the tube, listed as Enclomiphene (example 19)) of the same molecule?
Answer: 13 mm

Question: And the “filled space of 500 mg in test tube” value ([4]; filled space of 500 mg in a test tube after hitting the tube, listed as Enclomiphene base having non-prismatic crystal habit)?
Answer: 13 mm

Question: What about the “filled space of 500 mg in test tube” value ([4]; filled space of 500 mg in a test tube before hitting the tube, listed as Enclomiphene (example 19)) of the same molecule?
Answer: 17 mm

Question: What about the “filled space of 500 mg in test tube” value ([4]; filled space of 500 mg in a test tube before hitting the tube, listed as Enclomiphene having non-prismatic crystal habit) of the same molecule?
Answer: 24 mm

Question: What about the “Reduced space (bulk vs tapped)” value ([4]; listed as Enclomiphene (example 19)) of the same molecule?
Answer: 24%

Question: With `CCN(CC)CCOc1ccc(/C(=C(/Cl)c2ccccc2)c2ccccc2)cc1` [Enclomiphene base, Enclomiphene] as the molecule, how does the “solubility in water (in words)” value [8] read?
Answer: highly insoluble

Question: For `CCN(CC)CCOc1ccc(/C(=C(/Cl)c2ccccc2)c2ccccc2)cc1.O=C(O)CC(O)(CC(=O)O)C(=O)O` [Enclomiphene citrate having needle crystals], which “water uptake at 95% RH” value ([5]; listed as batch 723) is on record?
Answer: 2.33 % weight and 2.3 % weight

Question: What about the “solubility at pH 4.5 compared with Enclomiphene citrate having non-needle crystals” value [1] of the same molecule?
Answer: 4 to 5 times

Question: What about the “solubility at pH 4.5 compared with Enclomiphene citrate having non-needle crystals” value ([1]; listed as Enclomiphene citrate having needle shaped crystal habit) of the same molecule?
Answer: four times higher

Question: What about the Average a/a ([1]; pH = 4.5, 0 min) of the same molecule?
Answer: 0 a/a

Question: What about the Average a/a ([1]; pH = 4.5, 15 min) of the same molecule?
Answer: 4135 a/a

Question: What about the Average a/a ([1]; pH = 4.5, 45 min) of the same molecule?
Answer: 4024 a/a

Question: And the Average a/a ([1]; pH = 4.5, 90 min)?
Answer: 5109 a/a

Question: What about the Average a/a ([1]; pH = 4.5, 180 min) of the same molecule?
Answer: 5079 a/a

Question: What about the “solubility in water compared with Enclomiphene citrate having non-needle shaped crystal habit” value ([8]; water, listed as Enclomiphene citrate having needle shaped crystal habit) of the same molecule?
Answer: almost double; also recorded: almost two times

Question: With `CCN(CC)CCOc1ccc(/C(=C(/Cl)c2ccccc2)c2ccccc2)cc1.O=C(O)CC(O)(CC(=O)O)C(=O)O` [Enclomiphene citrate having non-needle crystals] [trans-Clomiphene monocitrate] as the molecule, how does the “moisture sorption between 0% and 65% RH” value ([5]; 0-65% RH) read?
Answer: 2 % weight

Question: What about the “water uptake at 95% RH” value ([5]; listed as batch 722) of the same molecule?
Answer: 6 % weight

Question: What about the Average a/a ([1]; pH = 4.5, 0 min) of the same molecule?
Answer: 0 a/a

Question: What about the Average a/a ([1]; pH = 4.5, 15 min) of the same molecule?
Answer: 1185 a/a

Question: And the Average a/a ([1]; pH = 4.5, 45 min)?
Answer: 924 a/a

Question: And the Average a/a ([1]; pH = 4.5, 90 min)?
Answer: 1095 a/a

Question: What about the Average a/a ([1]; pH = 4.5, 180 min) of the same molecule?
Answer: 1052 a/a
